Experimental data: ChEMBL document CHEMBL4406802, “Human disorders associated with inflammation and the evolving role of natural products to overcome” (Eur J Med Chem, 2019)

System: RAW264.7
Test: Antiinflammatory activity in mouse RAW264.7 cells assessed as inhibition of LPS-induced nitric oxide production at 25 uM relative to control
Type: functional
Conditions: not given

Row | Structure (SMILES) | inhibition at 25 µM
1 | CC1=C2C[C@H]3[C@@H](C[C@]2(C)C(O)CC1=O)OC(=O)[C@@H]3C (some centres undefined) | 23.6%
2 | C=C1C(=O)OC2CC(C)=C(C(C)CCCOC(C)=O)C(OC(C)=O)C12 (centres undefined) | 68.9%
3 | CC1CCC(O)[C@@]2(C)C[C@H]3OC(=O)[C@H](C)[C@H]3C=C12 (some centres undefined) | 14.6%
4 | C=C1C(=O)O[C@@H]2C[C@]3(C)C(O)CCC(C)C3(O)C[C@H]12 (some centres undefined) | 37.1%
5 | C=C1C(=O)O[C@@H]2C[C@@]3(C)C(=C(C)C(O)CC3O)C[C@H]12 (some centres undefined) | 23.8%

System: RAW264.7
Test: Cytotoxicity against mouse RAW264.7 cells assessed as cell viability after 24 hrs by MTT assay relative to control
Type: functional
Conditions: not given

Row | Structure (SMILES) | Activity
6 | C[C@@H]1[C@H](O)CC[C@]2(C(=O)O)CC[C@]3(C)C(CC[C@@H]4[C@@]5(C)CC[C@H](O[C@@H]6O[C@H](C(=O)O)[C@@H](O)[C@H](O)[C@H]6O[C@@H]6O[C@H](CO)[C@H](O)[C@H](O)[C@H]6O[C@@H]6O[C@@H](C)[C@H](O)[C@@H](O)[C@H]6O)C(C)(C)[C@@H]5CC[C@]43C)[C@H]12 (some centres undefined) | 96.8%
7 | C[C@@H]1O[C@@H](O[C@H]2[C@H](O[C@H]3[C@H](O[C@H]4CC[C@@]5(C)[C@@H](CC[C@]6(C)[C@@H]5CC=C5[C@@H]7C[C@]8(C)C[C@@H](OC8=O)[C@]7(C)CC[C@]56C)[C@@]4(C)CO)O[C@H](C(=O)O)[C@@H](O)[C@@H]3O)O[C@H](CO)[C@H](O)[C@@H]2OC=O)[C@H](O)[C@H](O)[C@H]1O | 95.2%

Molecular target: Nitric oxide synthase, inducible (Homo sapiens, UniProt P35228)
Sequence (P35228 whole entry): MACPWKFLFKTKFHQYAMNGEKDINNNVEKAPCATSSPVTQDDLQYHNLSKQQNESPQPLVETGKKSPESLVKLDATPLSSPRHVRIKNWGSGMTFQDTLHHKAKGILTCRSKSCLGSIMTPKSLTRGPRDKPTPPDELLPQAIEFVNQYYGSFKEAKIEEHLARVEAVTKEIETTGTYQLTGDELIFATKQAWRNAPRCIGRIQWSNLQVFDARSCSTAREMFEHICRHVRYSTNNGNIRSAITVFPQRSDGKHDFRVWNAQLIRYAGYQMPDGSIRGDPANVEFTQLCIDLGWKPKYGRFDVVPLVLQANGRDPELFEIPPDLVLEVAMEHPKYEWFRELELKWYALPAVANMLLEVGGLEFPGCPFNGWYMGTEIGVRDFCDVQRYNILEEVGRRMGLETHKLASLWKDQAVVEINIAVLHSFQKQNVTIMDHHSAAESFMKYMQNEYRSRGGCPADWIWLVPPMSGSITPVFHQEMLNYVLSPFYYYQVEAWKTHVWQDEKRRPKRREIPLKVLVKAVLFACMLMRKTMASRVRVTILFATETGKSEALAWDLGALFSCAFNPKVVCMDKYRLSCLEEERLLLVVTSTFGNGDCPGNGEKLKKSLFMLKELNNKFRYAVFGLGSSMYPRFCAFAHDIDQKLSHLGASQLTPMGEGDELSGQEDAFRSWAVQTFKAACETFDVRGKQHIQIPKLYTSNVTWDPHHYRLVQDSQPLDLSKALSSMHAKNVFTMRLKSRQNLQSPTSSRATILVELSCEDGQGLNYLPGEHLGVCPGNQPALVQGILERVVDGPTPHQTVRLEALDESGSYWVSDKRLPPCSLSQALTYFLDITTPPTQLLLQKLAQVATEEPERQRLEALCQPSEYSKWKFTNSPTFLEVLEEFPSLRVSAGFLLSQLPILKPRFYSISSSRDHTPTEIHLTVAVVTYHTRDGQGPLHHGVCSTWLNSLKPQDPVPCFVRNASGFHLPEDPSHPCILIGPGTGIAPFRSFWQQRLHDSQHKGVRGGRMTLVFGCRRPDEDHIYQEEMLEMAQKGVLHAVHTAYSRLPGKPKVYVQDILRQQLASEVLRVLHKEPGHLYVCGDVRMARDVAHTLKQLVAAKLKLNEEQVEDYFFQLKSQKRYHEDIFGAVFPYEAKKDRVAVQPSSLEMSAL
Test: Inhibition of iNOS (unknown origin) at 20 uM relative to control
Conditions: not given

Row | Structure (SMILES) | inhibition
8 | COc1cc(C2OCC3C(c4ccc(O)c(OC)c4)OCC23)ccc1O (centres undefined) | 49.1%

System: RAW264.7
Test: Antiinflammatory activity in mouse RAW264.7 cells assessed as inhibition of LPS-induced nitric oxide production at […] after 24 hrs by Griess reagent based assay relative to control
Type: functional
Parameters: dose or concentration left out as unconfirmed
Conditions: RAW264.7, 24 h

Row | Structure (SMILES) | inhibition
9 | O=c1c2ccc(O)c(O)c2oc2cc(O)cc(O)c12 | 78.9%
10 | CC(C)=CCOc1cc(O)c2c(=O)c3cc(OCC=C(C)C)c(OCC=C(C)C)cc3oc2c1 | 81.4%
11 | CC(C)=CC[C@@H]1C[C@]23C[C@@H](CC=C(C)C)C(C)(C)[C@](CC=C(C)C)(C(=O)C(C(=O)c4ccc(O)c(O)c4)=C2OC1(C)C)C3=O | 92.9%
12 | COc1cc(C)c2c(=O)c3c(O)cc(OC)cc3oc2c1 [LICHEXANTHONE] | 32%
13 | CC(C)=CCOc1cc(O)c2c(=O)c3cc(OCC=C(C)C)c(O)cc3oc2c1 | 84.2%

System: not listed separately
Test: Inhibition of TNFalpha-induced NFkappaB (unknown origin) activation expressed in mouse NIH-3T3 cells […] followed by TNFalpha addition measured after 6 hrs by luciferase reporter gene assay
Type: cell-based
Conditions: NIH3T3

Row | Structure (SMILES) | IC50
14 | C=C(CO)C(=O)O[C@H]1C[C@@H]2[C@@H]([C@@H](O)[C@@H]1C(=C)C(=O)OC)[C@H](C=O)CC[C@H]2O | > 50 µM
15 | C=C[C@]1(C)C[C@H](OC(=O)C(=C)CO)[C@@H](C(=C)C(=O)OC)[C@H](O)[C@H]1C(=C)CO | 45 µM
16 | C=C1C(=O)O[C@@H]2/C=C(\CO)CC/C=C(\C)C[C@H](OC(=O)/C(=C/C)CO)[C@@H]12 | 42.1 µM
17 | C=C[C@]1(C)C[C@H](OC(=O)C(=C)CO)[C@H]2C(=C)C(=O)O[C@@H]2[C@H]1C(=C)CO | 22.5 µM
18 | C=C[C@]1(C)C[C@H](OC(=O)C(=C)CO)[C@H]2C(=C)C(=O)O[C@@H]2[C@H]1C(=C)C=O | 3.6 µM
19 | C=C(CO)C(=O)O[C@H]1C/C(C)=C/CC/C(CO)=C/[C@H]2OC(=O)C(=C)[C@H]12 | 8.6 µM

System: RAW264.7
Test: Antiinflammatory activity in mouse RAW264.7 cells assessed as inhibition of LPS-induced nitric oxide production after 24 hrs by Griess reagent based assay relative to control
Type: functional, cell-based
Conditions: RAW264.7, 24 h

Row | Structure (SMILES) | IC50
20 | C[C@@H]1[C@H](O)CC[C@]2(C(=O)O)CC[C@]3(C)C(CC[C@@H]4[C@@]5(C)CC[C@H](O[C@@H]6O[C@H](C(=O)O)[C@@H](O)[C@H](O)[C@H]6O[C@@H]6O[C@H](CO)[C@H](O)[C@H](O)[C@H]6O[C@@H]6O[C@@H](C)[C@H](O)[C@@H](O)[C@H]6O)C(C)(C)[C@@H]5CC[C@]43C)[C@H]12 (some centres undefined) | 13.2 µM
21 | C[C@@H]1O[C@@H](O[C@H]2[C@H](O[C@H]3[C@H](O[C@H]4CC[C@@]5(C)[C@@H](CC[C@]6(C)[C@@H]5CC=C5[C@@H]7C[C@]8(C)C[C@@H](OC8=O)[C@]7(C)CC[C@]56C)[C@@]4(C)CO)O[C@H](C(=O)O)[C@@H](O)[C@@H]3O)O[C@H](CO)[C@H](O)[C@@H]2OC=O)[C@H](O)[C@H](O)[C@H]1O | 16.1 µM

Molecular target: T1, Prostaglandin G/H synthase 1 (Ovis aries, UniProt P05979)
T1 sequence (P05979 whole entry): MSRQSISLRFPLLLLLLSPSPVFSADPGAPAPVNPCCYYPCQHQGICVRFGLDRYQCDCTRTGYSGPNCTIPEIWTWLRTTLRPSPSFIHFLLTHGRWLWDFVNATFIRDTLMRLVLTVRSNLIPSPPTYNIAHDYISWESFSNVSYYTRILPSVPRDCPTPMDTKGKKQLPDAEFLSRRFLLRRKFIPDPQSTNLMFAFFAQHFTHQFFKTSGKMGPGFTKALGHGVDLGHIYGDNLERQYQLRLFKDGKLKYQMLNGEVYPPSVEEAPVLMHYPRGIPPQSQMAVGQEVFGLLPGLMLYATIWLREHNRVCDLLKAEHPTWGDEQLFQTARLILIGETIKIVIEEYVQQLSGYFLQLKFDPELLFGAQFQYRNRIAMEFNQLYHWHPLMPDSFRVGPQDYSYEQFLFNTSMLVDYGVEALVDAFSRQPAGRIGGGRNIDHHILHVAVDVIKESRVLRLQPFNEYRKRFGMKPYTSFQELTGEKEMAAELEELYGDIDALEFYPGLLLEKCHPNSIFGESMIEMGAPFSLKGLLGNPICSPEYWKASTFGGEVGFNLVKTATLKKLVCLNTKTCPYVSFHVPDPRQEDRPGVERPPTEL
Test: Inhibition of ovine COX1
Conditions: not given

Row | Structure (SMILES) | IC50
22 | O=C(/C=C/c1ccc(O)c(O)c1)OC1CC(O)(C(=O)O)CC(O)C1OC(=O)/C=C/c1ccc(O)c(O)c1 (centres undefined) | 5.87 µM
23 | O=C(/C=C/c1ccc(O)c(O)c1)OC(C(=O)O)C(OC(=O)/C=C/c1ccc(O)c(O)c1)C(OC(=O)/C=C/c1ccc(O)c(O)c1)C(OC(=O)/C=C/c1ccc(O)c(O)c1)C(=O)O (centres undefined) | 2.09 µM
24 | O=C(/C=C/c1ccc(O)c(O)c1)OC1CC(O)(C(=O)O)CC(OC(=O)/C=C/c2ccc(O)c(O)c2)C1O (centres undefined) | 4.96 µM

System: BV-2
Test: Antiinflammatory activity in mouse BV2 cells assessed as inhibition of LPS-induced nitric oxide production at 10 uM relative to control
Type: functional
Conditions: not given

Row | Structure (SMILES) | inhibition at 10 µM
25 | COc1ccc(CC2COC(=O)C2Cc2cc(C(=O)O)oc(=O)c2)cc1OC (centres undefined) | 75.5%
26 | COc1cc(CC2C(=O)OCC2Cc2cc(OC)c(O)c(C(CO)CO)c2)ccc1OC1O[C@H](CO)[C@@H](O)[C@H](O)[C@H]1O (some centres undefined) | 71.6%
27 | COc1ccc(C(O)C2COC(=O)C2Cc2ccc(OC3O[C@H](CO)[C@@H](O)[C@H](O)[C@H]3O)c(OC)c2)cc1OC (some centres undefined) | 87.8%
28 | COc1cc(/C=C/C(=O)CC(=O)/C=C/c2ccc(O)c(OC)c2)ccc1O [CURCUMIN] | 53%
29 | COc1cc(CC2C(=O)OCC2C(O)c2ccc(OC)c(OC)c2)ccc1O (centres undefined) | 63.3%

System: RAW264.7
Test: Antiinflammatory activity against mouse RAW264.7 cells assessed as inhibition of LPS induced iNOS at 30 uM preincubated for 1 hr followed by LPS stimulation measured after 18 hrs relative to control
Type: functional
Conditions: not given

Row | Structure (SMILES) | inhibition at 30 µM
30 | CC1(C)CC[C@]2(C(=O)O[C@@H]3O[C@H](CO)[C@@H](O)[C@H](O)[C@H]3O)CC[C@]3(C)C(=CC[C@@H]4[C@@]5(C)CC[C@H](O[C@@H]6O[C@H](C(=O)O)[C@@H](O)[C@H](O)[C@H]6O)C(C)(C)[C@@H]5CC[C@]43C)[C@@H]2C1 [CHIKUSETSUSAPONIN IVA] | 92.8%
31 | CC1=C2C3=CC[C@@H]4[C@@]5(C)CC[C@H](O[C@@H]6OC[C@@H](O)[C@H](O)[C@H]6O)C(C)(C)[C@@H]5CC[C@@]4(C)[C@]3(C)CC[C@@]2(C(=O)O[C@@H]2O[C@H](CO)[C@@H](O)[C@H](O)[C@H]2O)CC[C@H]1C | 64.9%
32 | CC1=C2C3=CC[C@@H]4[C@@]5(C)CC[C@H](O[C@@H]6OC[C@@H](O)[C@H](O)[C@H]6O[C@@H]6O[C@H](CO)[C@@H](O)[C@H](O)[C@H]6O)C(C)(C)[C@@H]5CC[C@@]4(C)[C@]3(C)CC[C@@]2(C(=O)O[C@@H]2O[C@H](CO)[C@@H](O)[C@H](O)[C@H]2O)CC[C@H]1C | 75%
33 | CC1=C(C)[C@H]2C3=CC[C@@H]4[C@@]5(C)CC[C@H](O[C@@H]6OC[C@@H](O)[C@H](O)[C@H]6O[C@@H]6O[C@H](CO)[C@@H](O)[C@H](O)[C@H]6O)C(C)(C)[C@@H]5CC[C@@]4(C)[C@]3(C)CC[C@@]2(C(=O)O[C@@H]2O[C@H](CO)[C@@H](O)[C@H](O)[C@H]2O)CC1 | 72%

Molecular target: T2, Prostaglandin G/H synthase 2 (Homo sapiens, UniProt P35354)
T2 sequence (P35354 whole entry): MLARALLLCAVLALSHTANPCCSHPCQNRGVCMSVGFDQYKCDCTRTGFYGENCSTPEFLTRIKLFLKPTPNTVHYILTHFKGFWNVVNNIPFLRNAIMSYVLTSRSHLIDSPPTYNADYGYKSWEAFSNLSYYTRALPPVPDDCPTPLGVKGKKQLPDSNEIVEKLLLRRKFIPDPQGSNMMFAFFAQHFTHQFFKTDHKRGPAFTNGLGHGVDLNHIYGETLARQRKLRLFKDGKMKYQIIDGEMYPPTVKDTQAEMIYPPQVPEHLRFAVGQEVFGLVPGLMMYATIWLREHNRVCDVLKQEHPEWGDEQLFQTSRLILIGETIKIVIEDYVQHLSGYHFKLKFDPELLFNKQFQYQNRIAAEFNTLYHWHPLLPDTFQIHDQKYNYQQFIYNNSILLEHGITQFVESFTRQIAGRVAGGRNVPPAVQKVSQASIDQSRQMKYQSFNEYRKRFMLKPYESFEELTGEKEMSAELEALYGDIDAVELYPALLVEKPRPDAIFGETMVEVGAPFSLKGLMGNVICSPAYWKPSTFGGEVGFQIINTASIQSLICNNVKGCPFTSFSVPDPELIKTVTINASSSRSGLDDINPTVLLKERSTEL
Test: Inhibition of COX2 (unknown origin)
Conditions: not given

Row | Structure (SMILES) | IC50
34 | COOC[C@@]1(C)CC[C@]2(C)CC[C@]3(C)[C@@H]4CCc5cc(O)c(O)cc5[C@]4(C)CC[C@@]3(C)C2C1 (some centres undefined) | 430 µM
35 | CC(C)[C@@H]1CC[C@]2(C)[C@@H]3C(C=C4[C@@H]5CC(C)(C)C(=O)C[C@]5(C)CC[C@]42C)OC(=O)CC(O)[C@]31C (some centres undefined) | 460 µM
36 | O=C(O[C@@H]1[C@@H](c2c(O)cc(O)c3c2O[C@H](c2cc(O)c(O)c(O)c2)[C@H](OC(=O)c2cc(O)c(O)c(O)c2)C3)c2c(O)cc(O)c([C@H]3c4c(O)cc(O)cc4O[C@H](c4cc(O)c(O)c(O)c4)[C@@H]3OC(=O)c3cc(O)c(O)c(O)c3)c2O[C@@H]1c1cc(O)c(O)c(O)c1)c1cc(O)c(O)c(O)c1 | 4.5 µM
37 | COOC[C@@]1(C)CC[C@]2(C)CC[C@]3(C)[C@@H]4CC(=O)c5cc(OC)c(O)cc5[C@]4(C)CC[C@@]3(C)C2C1 (some centres undefined) | 660 µM
38 | C=C(C)[C@@H]1CC[C@]2(C)CC[C@]3(C)[C@H](CCC4[C@@]5(C)[C@H](O)C[C@H](O)C(C)(C)[C@@H]5CC[C@]43C)[C@@H]12 (some centres undefined) | 450 µM
39 | CC(C)[C@@H]1CC[C@]2(C)[C@@H]3C(C=C4[C@@H]5CC(C)(C)CC[C@]5(C)CC[C@]42C)OC(=O)CC[C@]31C (some centres undefined) | 650 µM
